This is an account of results in paper PMC4841036, “Synthesis and antimicrobial evaluation of two peptide LyeTx I derivatives modified with the chelating agent HYNIC for radiolabeling with technetium-99m” (The Journal of Venomous Animals and Toxins Including …, 2016).

Where no end group is shown, it is not given here.

For experiment [1], the system named is E. coli (ATCC® 10536). Kind of experiment: Microdilution test, MIC in TSB. In kind it is cell-based, Escherichia coli. As to conditions: microdilution (CLSI) in TSB, 37 °C for 24 h, MIC = reduction of 100 % in bacterial growth, median (n = 3), each in duplicate, NI = no inhibition. How it is done: (§1) The maintenance of the antimicrobial activity after peptide LyeTx I modifications with HYNIC was evaluated by microdilution test, according to the Clinical and Laboratory Standards Institute. Bacterial strains of reference, S. aureus (ATCC® 6538) and E. coli (ATCC® 10536), were grown on tryptic soy agar at 37 °C for 18 h. Then, 0.5 McFarland scale bacterial suspensions (10^8 CFU^.mL^−1) were prepared on tryptic soy broth (TSB). The readouts were carried by determination of minimum inhibitory concentration (MIC), defined as a reduction of 100 % in bacterial growth post-incubation with the peptide LyeTx I derivatives at 37 °C for 24 h. LyeTx I obtained by chemical synthesis and without the coupled chelating agent was used as treatment control. Only TSB (no bacterial suspension and no peptide) was used as negative control. TSB plus bacterial suspension (no peptide) were used as positive control. MIC was expressed as median (n = 3). Each replicate was performed with a different bacterial colony, in duplicate.

Experiment [2] has as its system S. aureus (ATCC® 6538). Kind of experiment: Microdilution test, MIC in TSB. In kind it is cell-based, Staphylococcus aureus. Particulars: microdilution (CLSI) in TSB, 37 °C for 24 h, MIC = reduction of 100 % in bacterial growth, median (n = 3), each in duplicate, NI = no inhibition. How it is done:
as §1

In experiment [3] the test system is S. aureus. As to conditions: different assay conditions and other bacterial strains; cited from earlier work. The source says: (§2) However, different assay conditions and other bacterial strains were employed, which can explain the slight differences in the MIC obtained in this study. […] On the other hand, the peptide HYNIC-LyeTx I derivative (N- ...
Experiment [4] concerns E. coli. Particulars: different assay conditions and other bacterial strains; cited from earlier work.
Text: as §2

Regarding IWLTALKFLGKNLGKHLAKQQLAKL-NH2 [LyeTx I], the “Minimum inhibitory concentration (MIC)” value in experiment [1] and in experiment [2] was 5.52 μmol^.L^−1 each time. Moreover, the MIC in experiment [3] is recorded as 3.79 μmol^.L^−1; in experiment [4] it was 7.81 μmol^.L^−1.
